The values below come from US10745382B2 (BRISTOL-MYERS SQUIBB COMPANY, priority 2015, dated 2020).

T1 sequence (Q9NZQ7 with tags, fused parts or gaps): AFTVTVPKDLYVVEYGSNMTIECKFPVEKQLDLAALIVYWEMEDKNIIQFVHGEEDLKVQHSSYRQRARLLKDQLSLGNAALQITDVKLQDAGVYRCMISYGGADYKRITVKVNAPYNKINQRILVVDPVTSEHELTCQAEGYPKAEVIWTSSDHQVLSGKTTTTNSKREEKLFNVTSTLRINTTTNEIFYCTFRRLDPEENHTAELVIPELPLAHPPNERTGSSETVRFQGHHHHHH

One test addresses T1, PD-1/PD-L1 (Homo sapiens, UniProt Q9NZQ7).
T1 construct: made in house; host or cells: HEK293T
Put plainly: PD-1/PD-L1 Homogenous Time-Resolved Fluorescence (HTRF) binding assay. The following applies: PD-L1-His 10 nM, PD-1-Ig 20 nM; numeric IC50; read-out: Range or IC50. Put shortly:
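dPBS + 0.1% BSA + 0.05% Tween-20 buffer; Eu-cryptate anti-Ig 1 nM final, APC anti-His 20 nM final; HTRF read. Counter-assays: PD-1-Ig/PD-L2-His 20 & 5 nM, CD80-His/PD-L1-Ig 100 & 10 nM.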
For orientation: Time-resolved FRET reads energy transfer from a long-lived donor to a nearby acceptor.
As usually defined, the IC50 is the concentration at which inhibition is half-maximal. `Cc1c(COc2cc(OCc3cncc(C#N)c3)c(CN3CCCC[C@H]3C(=O)O)cc2Cl)cccc1-c1cccc(OCCCNCCc2ncn(C)c2Cl)c1C` [Example 2231, (2S)-1-(5-chloro-4-((3′-(3-(2-(5-chloro-1-methyl-1H-imidazol-4-yl)ethylamino)propoxy)-2,2′-dimethylbiphenyl-3-yl)methoxy)-2-((5-cyanopyridin-3-yl)methoxy)benzyl)piperidine-2-carboxylic Acid]: the IC50 turned out to be 12 nM.

Staying with this test, now noted: PD-L1-His 10 nM, PD-1-Ig 20 nM; value given as range class; read-out: Range or IC50.
As for `COc1ccccc1N1CCN(CCCOc2cccc(-c3cccc(COc4cc(OCc5cncc(C#N)c5)c(CN5CCCC[C@H]5C(=O)O)cc4Cl)c3C)c2C)CC1` [Example 2219, (2S)-1-(5-chloro-2-((5-cyanopyridin-3-yl)methoxy)-4-((3′-(3-(4-(2-methoxyphenyl)piperazin-1-yl)propoxy)-2,2′-dimethylbiphenyl-3-yl)methoxy)benzyl)piperidine-2-carboxylic Acid], the half-inhibitory concentration (IC50) is 0.21 to 10 nM.

Take `Cc1c(COc2cc(OCc3cncc(C#N)c3)c(CN3CCCC[C@H]3C(=O)O)cc2Cl)cccc1-c1cccc(OCCCNC[C@H](O)c2ccccc2)c1C` [Example 2220, (2S)-1-(5-chloro-2-((5-cyanopyridin-3-yl)methoxy)-4-((3′-(3-((R)-2-hydroxy-2-phenylethylamino)propoxy)-2,2′-dimethylbiphenyl-3-yl)methoxy)benzyl)piperidine-2-carboxylic Acid]: the 50% inhibitory concentration (IC50) was in the range of 0.21 to 10 nM.

For `Cc1c(COc2cc(OCc3cncc(C#N)c3)c(CN3CCCC[C@H]3C(=O)O)cc2Cl)cccc1-c1cccc(OCCCNC[C@@H](O)c2ccccc2)c1C` [Example 2221, (2S)-1-(5-chloro-2-((5-cyanopyridin-3-yl)methoxy)-4-((3′-(3-((S)-2-hydroxy-2-phenylethylamino)propoxy)-2,2′-dimethylbiphenyl-3-yl)methoxy)benzyl)piperidine-2-carboxylic Acid], the IC50 lay within 0.21 to 10 nM. For the molecule `Cc1c(COc2cc(OCc3cncc(C#N)c3)c(CN3CCCC[C@H]3C(=O)O)cc2Cl)cccc1-c1cccc(OCCCNCC(O)c2ccccn2)c1C` (stereo partly drawn) [Example 2222, (2S)-1-(5-chloro-2-((5-cyanopyridin-3-yl)methoxy)-4-((3′-(3-(2-hydroxy-2-(pyridin-2-yl)ethylamino)propoxy)-2,2′-dimethylbiphenyl-3-yl)methoxy)benzyl)piperidine-2-carboxylic Acid], the IC50 was 0.21 to 10 nM. As to `Cc1c(COc2cc(OCc3cncc(C#N)c3)c(CN3CCCC[C@H]3C(=O)O)cc2Cl)cccc1-c1cccc(OCCCN2CCC[C@@H](O)C2)c1C` [Example 2223, (2S)-1-(5-chloro-2-((5-cyanopyridin-3-yl)methoxy)-4-((3′-(3-((R)-3-hydroxypiperidin-1-yl)propoxy)-2,2′-dimethylbiphenyl-3-yl)methoxy)benzyl)piperidine-2-carboxylic Acid], the IC50 is 0.21 to 10 nM.

For `Cc1c(COc2cc(OCc3cncc(C#N)c3)c(CN3CCCC[C@H]3C(=O)O)cc2Cl)cccc1-c1cccc(OCCCN2CCC[C@H](O)C2)c1C` [Example 2224, (2S)-1-(5-chloro-2-((5-cyanopyridin-3-yl)methoxy)-4-((3′-(3-((S)-3-hydroxypiperidin-1-yl)propoxy)-2,2′-dimethylbiphenyl-3-yl)methoxy)benzyl)piperidine-2-carboxylic Acid], the IC50 lay in the range of 0.21 to 10 nM. Same read-out and setting: the value for `Cc1c(COc2cc(OCc3cncc(C#N)c3)c(CN3CCCC[C@H]3C(=O)O)cc2Cl)cccc1-c1cccc(OCCCNCCc2ccccn2)c1C` [Example 2225, (2S)-1-(5-chloro-2-((5-cyanopyridin-3-yl)methoxy)-4-((2,2′-dimethyl-3′-(3-(2-(pyridin-2-yl)ethylamino)propoxy)biphenyl-3-yl)methoxy)benzyl)piperidine-2-carboxylic Acid] was 0.21 to 10 nM; that for `Cc1c(COc2cc(OCc3cncc(C#N)c3)c(CN3CCCC[C@H]3C(=O)O)cc2Cl)cccc1-c1cccc(OCCCN(C)Cc2cccnc2)c1C` [Example 2226, (2S)-1-(5-chloro-2-((5-cyanopyridin-3-yl)methoxy)-4-((2,2′-dimethyl-3′-(3-(methyl(pyridin-3-ylmethyl)amino)propoxy)biphenyl-3-yl)methoxy)benzyl)piperidine-2-carboxylic Acid] was 0.21 to 10 nM; that for `Cc1c(COc2cc(OCc3cncc(C#N)c3)c(CN3CCCC[C@H]3C(=O)O)cc2Cl)cccc1-c1cccc(OCCCNC23CC4CC(CC(C4)C2)C3)c1C` [Example 2227, (S)-1-(4-((3′-(3-((3s,5s,7s)-adamantan-1-ylamino)propoxy)-2,2′-dimethyl-[1,1′-biphenyl]-3-yl)methoxy)-5-chloro-2-((5-cyanopyridin-3-yl)methoxy)benzyl)piperidine-2-carboxylic Acid] was 0.21 to 10 nM. Consider `Cc1c(COc2cc(OCc3cncc(C#N)c3)c(CN3CCCC[C@H]3C(=O)O)cc2Cl)cccc1-c1cccc(OCCCN(C)Cc2ccccn2)c1C` [Example 2228, (2S)-1-(5-chloro-2-((5-cyanopyridin-3-yl)methoxy)-4-((2,2′-dimethyl-3′-(3-(methyl(pyridin-2-ylmethyl)amino)propoxy)biphenyl-3-yl)methoxy)benzyl)piperidine-2-carboxylic Acid], for which the 50% inhibitory concentration (IC50) is 10 to 100 nM. Same read-out and setting: the value for `COC(=O)[C@H]1CC[C@H](NCCCOc2cccc(-c3cccc(COc4cc(OCc5cncc(C#N)c5)c(CN5CCCC[C@H]5C(=O)O)cc4Cl)c3C)c2C)CC1` [Example 2229, (2S)-1-(5-chloro-2-((5-cyanopyridin-3-yl)methoxy)-4-((3′-(3-((1r,4r)-4-(methoxycarbonyl)cyclohexylamino)propoxy)-2,2′-dimethylbiphenyl-3-yl)methoxy)benzyl)piperidine-2-carboxylic Acid] was 0.21 to 10 nM; that for `Cc1c(COc2cc(OCc3cncc(C#N)c3)c(CN3CCCC[C@H]3C(=O)O)cc2Cl)cccc1-c1cccc(OCCCN[C@@H](CO)c2ccccc2)c1C` [Example 2230, (2S)-1-(5-chloro-2-((5-cyanopyridin-3-yl)methoxy)-4-((3′-(3-((R)-2-hydroxy-1-phenylethylamino)propoxy)-2,2′-dimethylbiphenyl-3-yl)methoxy)benzyl)piperidine-2-carboxylic Acid] was 0.21 to 10 nM; that for `Cc1c(COc2cc(OCc3cncc(C#N)c3)c(CN3CCCC[C@H]3C(=O)O)cc2Cl)cccc1-c1cccc(OCCCN2CC(N(C)C)C2)c1C` [Example 2232, (2S)-1-(5-chloro-2-((5-cyanopyridin-3-yl)methoxy)-4-((3′-(3-(3-(dimethylamino)azetidin-1-yl)propoxy)-2,2′-dimethylbiphenyl-3-yl)methoxy)benzyl)piperidine-2-carboxylic Acid] was 0.21 to 10 nM. Same read-out and setting: next, `Cc1c(COc2cc(OCc3cncc(C#N)c3)c(CN3CCCC[C@H]3C(=O)O)cc2Cl)cccc1-c1cccc(OCCCN(C)CCO)c1C` [Example 2233, (2S)-1-(5-chloro-2-((5-cyanopyridin-3-yl)methoxy)-4-((3′-(3-((2-hydroxyethyl)(methyl)amino)propoxy)-2,2′-dimethylbiphenyl-3-yl)methoxy)benzyl)piperidine-2-carboxylic Acid]: 0.21 to 10 nM; `Cc1c(COc2cc(OCc3cncc(C#N)c3)c(CN3CCCC[C@H]3C(=O)O)cc2Cl)cccc1-c1cccc(OCCCNCC(C)(C)CO)c1C` [Example 2234, (2S)-1-(5-chloro-2-((5-cyanopyridin-3-yl)methoxy)-4-((3′-(3-(3-hydroxy-2,2-dimethylpropylamino)propoxy)-2,2′-dimethylbiphenyl-3-yl)methoxy)benzyl)piperidine-2-carboxylic Acid]: 0.21 to 10 nM.
